Patent US9796668B2, “Natural product analogs including an anti-inflammatory cyanoenone pharmacore and methods of use” (REATA PHARMACEUTICALS, INC., priority 2008, dated 2017)
Read-outs that look alike come from different tables or passages of the source.

Experiments:
[1] = system: IFNγ-induced NO production in RAW264.7 macrophages; experiment: Suppression of IFNγ-induced NO production (Griess reagent); assay type: cell-based, mouse
Protocol: (§1) FIGS. 1-16 and 20-24. Inhibition of NO Production. RAW264.7 macrophages were pre-treated with DMSO or drugs at various concentrations (μM) for 2 hours, then treated with IFNγ for 24 hours. NO concentration in media was determined using a Griess reagent system; cell viability was determined using the WST-1 reagent.
Compounds of the present disclosure have been tested for inhibition of NO production. Experimental details are provided in Example 1.
(§2) RAW264.7 macrophages were pre-treated with DMSO or drugs for 2 hours, then treated with recombinant mouse IFNγ (Sigma) for 24 hours. NO concentration in media was determined using the Griess reagent system (Promega). Cell viability was determined using WST-1 reagent (Roche).

RAW264.7 macrophages = experiment: Cell viability (WST-1 reagent); assay type: cell-based, mouse; details: RAW264.7, 20 ng/ml IFNγ
Protocol: as §1, §2

[2] = Mus musculus, RAW264.7, read-out: NO IC50
[3] = Mus musculus, RAW264.7, read-out: IC50 in the NO assay
[4] = Mus musculus, RAW264.7, 20 ng/ml IFNγ, read-out: NO IC50
[5] = Mus musculus, RAW264.7, parent compounds, read-out: IC50 in the NO assay

Structure (SMILES): C=CCC1(CC=C)C(=O)C(C#N)(C#N)C[C@@]2(C)C1=CC[C@@H]1[C@@H]2CC[C@]2(C)C(=O)CC[C@@H]12 [Compound 63290]
- IC50 [1, 2]: ~3 µM
- IC50 (RAW264.7 macrophages; Mus musculus): ~10 µM

Structure (SMILES): C=CCC1(CC=C)C(=O)C(C#N)(C#N)C[C@@]2(C)C1=CC[C@@H]1[C@@H]2CC[C@@]2(C)[C@H]1CCC21OCCO1 [Compound 63291]
- IC50 [1, 2]: ~1.5 µM
- IC50 (RAW264.7 macrophages; Mus musculus): > 10 µM

Structure (SMILES): C[C@]12C=C(C#N)C(=O)C3(CC=CC3)C1=CC[C@@H]1[C@@H]2CC[C@@]2(C)[C@H]1CCC21OCCO1 [Compound 63304]
- IC50 [1, 2]: ~0.03 µM
- IC50 (RAW264.7 macrophages; Mus musculus): ~0.4 µM

Structure (SMILES): C[C@]12C=C(C#N)C(=O)C3(CC=CC3)C1=CC[C@@H]1[C@@H]2CC[C@]2(C)C(=O)CC[C@@H]12 [Compound 63311]
- IC50 [1, 2]: ~0.02 µM
- IC50 (RAW264.7 macrophages; Mus musculus): ~0.75 µM

Structure (SMILES): COCO[C@H]1C[C@H]2[C@@H]([C@H](OCOC)C[C@@H]3CC(=O)C(C#N)=C[C@@]32C)[C@@H]2CC[C@H]([C@H](C)CCC(=O)OC)[C@@]12C [Compound 63312]
- IC50 [1, 2]: ~3.5 µM
- IC50 (RAW264.7 macrophages; Mus musculus): > 0.2 µM

Structure (SMILES): CCCC1(CCC)C(=O)C(C#N)=C[C@@]2(C)C1=CC[C@@H]1[C@@H]2CC[C@]2(C)C(=O)CC[C@@H]12 [Compound 63313]
- IC50 [1, 2]: ~0.45 µM
- IC50 (RAW264.7 macrophages; Mus musculus): ~2.5 µM

Structure (SMILES): COC(=O)CC[C@@H](C)[C@H]1CC[C@H]2[C@@H]3[C@H](O)C[C@@H]4CC(=O)C(C#N)=C[C@]4(C)[C@H]3C[C@H](O)[C@]12C [Compound 63314]
- IC50 [1, 2]: ~8 µM
- IC50 (RAW264.7 macrophages; Mus musculus): > 0.2 µM

Structure (SMILES): C[C@]12C=C(C#N)C(=O)C3(CCCC3)C1=CC[C@@H]1[C@@H]2CC[C@@]2(C)[C@H]1CCC21OCCO1 [Compound 63317]
- IC50 [1, 2]: ~0.07 µM

Structure (SMILES): C[C@]12C=C(C#N)C(=O)C3(CCCC3)C1=CC[C@@H]1[C@@H]2CC[C@]2(C)C(=O)CC[C@@H]12 [Compound 63318]
- IC50 [1, 2]: ~0.05 µM

Structure (SMILES): C[C@]12CC[C@H]3[C@@H](CC=C4C5(CCCC5)C(=O)C(C#N)=C[C@@]43C)[C@@H]1CC[C@@H]2O [Compound 63329]
- IC50 [1, 2]: ~0.06 µM

Structure (SMILES): COc1cc(C=CC2(C(C)(C)C(=O)/C=C/[C@@]3(C)C=C(C#N)C(=O)C(C)(C)C3)OCCO2)ccc1O[Si](C)(C)C(C)(C)C [Compound C0008, (S)-3-((E)-4-(2-(4-(tert-butyldimethylsilyloxy)-3-methoxystyryl)-1,3-dioxolan-2-yl)-4-methyl-3-oxopent-1-enyl)-3,5,5-trimethyl-6-oxocyclohex-1-enecarbonitrile]
- IC50 [1, 2]: 0.34 µM
- IC50 (RAW264.7 macrophages; Mus musculus): 5 µM

Structure (SMILES): COc1cc(/C=C/C(=O)C(C)(C)C(=O)/C=C/[C@@]2(C)C=C(C#N)C(=O)C(C)(C)C2)ccc1O [Compound C0009, (S)-3-((1E,6E)-7-(4-hydroxy-3-methoxyphenyl)-4,4-dimethyl-3,5-dioxohepta-1,6-dienyl)-3,5,5-trimethyl-6-oxocyclohex-1-enecarbonitrile]
- IC50 [1, 3]: 0.1 µM
- IC50 [1, 4]: 0.1 µM
- IC50 (RAW264.7 macrophages; Mus musculus): 1 µM

Structure (SMILES): COc1cc(C=CC2(C(C)(C)C(=O)/C=C/[C@@]3(C)C=C(C#N)C(=O)C(C)(C)C3)OCCO2)ccc1O [Compound C0010, (S)-3-((E)-4-(2-(4-hydroxy-3-methoxystyryl)-1,3-dioxolan-2-yl)-4-methyl-3-oxopent-1-enyl)-3,5,5-trimethyl-6-oxocyclohex-1-enecarbonitrile]
- IC50 [1, 4]: 0.7 µM
- IC50 (RAW264.7 macrophages; Mus musculus): 5 µM

Structure (SMILES): COCOC1CCC2C3CCC4=C(C#N)C(=O)CC[C@@]4(C)C3CC[C@@]12C (stereo partly drawn) [Compound D0014, (10S,13R)-17-(methoxymethoxy)-10,13-dimethyl-3-oxo-2,3,6,7,8,9,10,11,12,13,14,15,16,17-tetradecahydro-1H-cyclopenta[a]phenanthrene-4-carbonitrile]
- IC50 [1, 2]: 2.4 µM
- IC50 (RAW264.7 macrophages; Mus musculus): > 10 µM

Structure (SMILES): C[C@@]12CCC3C(CCC4=C(C#N)C(=O)CC[C@]43C)C1CCC2O (stereo partly drawn) [Compound D0015, (10S,13R)-17-hydroxy-10,13-dimethyl-3-oxo-2,3,6,7,8,9,10,11,12,13,14,15,16,17-tetradecahydro-1H-cyclopenta[a]phenanthrene-4-carbonitrile]
- IC50 [1, 4]: 2.9 µM
- IC50 (RAW264.7 macrophages; Mus musculus): > 10 µM

Structure (SMILES): CC1(C)C(=O)C(C#N)=C[C@]2(C)C3CC[C@]4(C)C(O[Si](C)(C)C)CCC4C3CCC12 (stereo partly drawn) [Compound D0016, (10S,13S)-4,4,10,13-tetramethyl-3-oxo-17-(trimethylsilyloxy)-4,5,6,7,8,9,10,11,12,13,14,15,16,17-tetradecahydro-3H-cyclopenta[a]phenanthrene-2-carbonitrile]
- IC50 [1, 4]: 0.15 µM
- IC50 (RAW264.7 macrophages; Mus musculus): 10 µM

Structure (SMILES): CC1(C)C(=O)C(C#N)=C[C@]2(C)C3CC[C@@]4(C)C(CC[C@@H]4O)C3CCC12 (stereo partly drawn) [Compound D0017, (10S,13S,17S)-17-hydroxy-4,4,10,13-tetramethyl-3-oxo-4,5,6,7,8,9,10,11,12,13,14,15,16,17-tetradecahydro-3H-cyclopenta[a]phenanthrene-2-carbonitrile]
- IC50 [1, 4]: 0.14 µM
- IC50 (RAW264.7 macrophages; Mus musculus): 10 µM

Structure (SMILES): CC1(C)C(=O)C(C#N)=C[C@]2(C)C3CC[C@]4(C)C(=O)CCC4C3CCC12 (stereo partly drawn) [Compound D0018, (10S,13S)-4,4,10,13-tetramethyl-3,17-dioxo-4,5,6,7,8,9,10,11,12,13,14,15,16,17-tetradecahydro-3H-cyclopenta[a]phenanthrene-2-carbonitrile]
- IC50 [1, 3]: 0.13 µM
- IC50 [1, 4]: 0.13 µM
- IC50 (RAW264.7 macrophages; Mus musculus): > 10 µM

Structure (SMILES): CC1CC[C@@]2(OC1)OC1CC3C4CCC5CC(=O)C(C#N)=C[C@]5(C)C4=CC(=O)[C@]3(C)C1[C@@H]2C (stereo partly drawn) [Compound H0001]
- IC50 [1, 2]: 0.15 µM
- IC50 (RAW264.7 macrophages; Mus musculus): 2.5 µM

Structure (SMILES): C[C@]1(/C=C/c2ccc(O)cc2)C=C(C#N)C(=O)CC1 [Compound R00141, (S,E)-3-(4-hydroxystyryl)-3-methyl-6-oxocyclohex-1-enecarbonitrile]
- IC50 [1, 4]: 3 µM
- IC50 (RAW264.7 macrophages; Mus musculus): > 10 µM

Structure (SMILES): CC1(C)C[C@@](C)(/C=C/c2ccc(O)cc2)C=C(C#N)C1=O [Compound R00142, (S,E)-3-(4-hydroxystyryl)-3,5,5-trimethyl-6-oxocyclohex-1-enecarbonitrile]
- IC50 [1, 4]: 1.2 µM
- IC50 (RAW264.7 macrophages; Mus musculus): > 10 µM

Structure (SMILES): COc1cc(/C=C/C(=O)CC(=O)/C=C/c2ccc(O)c(OC)c2)ccc1O [Curcumin, curcumin, reference compound]
- IC50 [1, 5]: 1.5 µM
- IC50 [1, 4]: 1.35 µM
- IC50 (RAW264.7 macrophages; Mus musculus): 4 µM

Structure (SMILES): C[C@]12CC[C@H](O)CC1=CC[C@@H]1[C@@H]2CC[C@]2(C)C(=O)CC[C@@H]12 [DHEA, dehydroandrosterone, reference compound]
- IC50 [1, 5]: > 10 µM
- IC50 [1, 4]: > 10 µM
- IC50 (RAW264.7 macrophages; Mus musculus): > 10 µM

Structure (SMILES): C[C@@H]1CC[C@@]2(OC1)O[C@H]1C[C@H]3[C@@H]4CC[C@H]5C[C@@H](O)CC[C@]5(C)[C@H]4CC(=O)[C@]3(C)[C@H]1[C@@H]2C [Hecogenin, hecogenin, reference compound]
- IC50 ([1]; RAW264.7, 20 ng/ml IFNγ, read-out: NO IC50): > 10 µM
- IC50 (RAW264.7 macrophages): > 10 µM

Structure (SMILES): Oc1ccc(C=Cc2cc(O)cc(O)c2)cc1 [Resveratrol, resveratrol, reference compound]
- IC50 [1, 4]: > 10 µM
- IC50 (RAW264.7 macrophages; Mus musculus): > 10 µM
